Source: patent US20030229105A1, “Treatment of autoimmune disorders” (Cyclacel Limited, priority 2002, published 2003)

Columns and labels:
HIV-1 = assay: p24 antigen ELISA of supernatants from induced HIV-1 latently infected cells (ACH2, 8E5, U1); assay type: cell-based; conditions: for inhibition of HIV-1 replication, prolonged treatment: U1 and 8E5 cells, up to 21 days, 5 or 10 μM (data not shown); for postintegrative HIV-1 progeny formation: low concentrations (data not shown)
Experimental: We chose HIV-1 stably integrated cells, lymphocytic ACH2 and 8E5 cell lines, as well as monocytic U1 cells (and their uninfected parental counterparts CEM and U937, respectively) for our initial studies, since viral transcription could be activated and scored through signals, such as Tat, TNF-α or phorbol myristate acetate (PMA) and PHA. We first activated viruses in these cells with TNF-α (10 ng/ml) at 37° C. for 2 h, followed by washing, and then we incubated cells with 10 μM concentrations of each drug. […] We next examined the effect of all three drugs on primary HIV-1 field isolates of SI and NSI strains. Activated PBMC were infected with two independent HIV-1 viral strains of SI (UG/92/029, subtype A envelope) and NSI (THA/92/001, subtype E envelope).
Five days later, the supernatants were collected, and the amount of newly synthesized HIV-1 was measured by p24 antigen assay. (B) Purified Tat (300 μg) was electroporated into ACH2, 8E5, and U1 cells and subsequently treated with various drugs for 5 days. […] Seven days later samples were collected and used for p19 gag ELISA. (E) PHA-activated PBMC (5×10^6) were infected with HIV-1 either SI (UG/92/029 Uganda strain, subtype A envelope) or NSI (THA/92/001, Thailand strain, subtype E envelope) strains. Unadsorbed viruses were washed after 6 h, and cells were cultured in fresh media with various cdk inhibitors (10 μM). Samples were collected every sixth day and used for p24 gag ELISA assay.
At days 2, 4, and 6, the supernatants were collected, and the released HIV-1 particles were measured by using a p24 antigen ELISA assay. (B) Twenty micrograms of total RNA was separated on an RNA-formaldehyde-agarose gel, transferred, and probed with full-length labeled HIV-1 genome RNA. The hybridized genomic RNA, singly spliced (structural), and doubly spliced (regulatory) RNAs were exposed and counted by using Molecular Dynamic PhosphorImager software.
Supernatants from the infected PBMC were collected and used directly for the p24 antigen assay. The p24 gag antigen level was analyzed by using the HIVAG-1 Monoclonal Antibody Kit (Abbott Laboratories, Diagnostics Division). The HTLV-1 p19 core antigen ELISA kit was from Retro-Tek (Cellular Products).

CEM cells = assay: Cell proliferation, [3H]thymidine incorporation; assay type: cell-based; conditions: ca. 10 μM
Text: We next sought to determine whether the inhibition of HIV-1 transcription, observed above, could be mediated specifically by cdk inhibitors or by general cell cycle inhibitors. To distinguish between the two possibilities, we performed transfection experiments with all three cdk inhibitors tested above and two other well-established cell cycle inhibitors, namely, hydroxyurea and nocodazole. Hydroxyurea blocks DNA replication by inhibiting ribonucleotide reductase and thus arrests cell cycle progression at the G1/S checkpoint, while nocodazole blocks at G2/M by promoting tubulin depolymerization. […] Therefore, the basal transcription of HIV-1 was inhibited by purine analogs and not general cell cycle inhibitors.
FIG. 3 discloses inhibition of HIV-1 basal and activated transcription by cdk inhibitors. […] The graphs at the bottom of the figure represent the effect of various concentrations of general cell cycle inhibitors (hydroxyurea and nocodazole) on CEM cells. (B) Inhibition of activated transcription in CEM cells was examined using transfected HIV-1 LTR-CAT, together with pcTat plasmid. […]
Cells (CEM) were initially treated with various concentrations of hydroxyurea or nocodazole and evaluated after 0, 12, 24, 48, 60, and 72 h. […] The amount of radioactivity incorporated into the DNA was measured in a liquid scintillation counter (Packard) and expressed as the counts per minute (cpm). […]

[1] = test system: uninfected T and monocytic cells; assay: Initial test of cdk inhibitors on uninfected cells (data not shown)

SMILES | inhibition of HIV-1 replication, prolonged treatment (HIV-1) | postintegrative HIV-1 progeny formation (HIV-1) | inhibition of DNA synthesis (CEM cells) | toxicity in uninfected cells [1]
NC(=O)NO [hydroxyurea, reference compound] | neither hydroxyurea nor nocodazole was able to inhibit HIV-1 replication | remained essentially the same | no inhibition of DNA synthesis was observed | 
Cn1cnc2c(NCc3ccccc3)nc(NCCO)nc21 [Olomoucine] |  |  |  | lack of toxicity
COC(=O)Nc1nc2ccc(C(=O)c3cccs3)cc2[nH]1 [nocodazole, reference compound] | neither hydroxyurea nor nocodazole was able to inhibit HIV-1 replication | slightly higher | no inhibition of DNA synthesis was observed | 
